Measured values published in US20260234137A1, “BICYCLIC ENHANCERS OF THE PARTICULATE GUANYLYL CYCLASE RECEPTOR A” (University of Florida Research Foundation, Incorporated, priority 2022, published 2026).
Entries after “also recorded” stand apart in the source; their conditions may differ. Read-outs that look alike come from different tables or passages of the source. Each block holds one compound with its values, some of them ahead of it.

Tests used:
human GC-A = target: T1, human GC-A (Homo sapiens, UniProt P16066); experiment: cGMP potentiation (HTRF) in human GC-A overexpressing HEK293 cells with EC20 ANP; format: cell-based; conditions: for IC50: Table 3, additional compounds, modulation of pGC-A; for Emax: HEK293
T1 construct: host or cells: HEK293
T1 sequence (P16066 33-1061): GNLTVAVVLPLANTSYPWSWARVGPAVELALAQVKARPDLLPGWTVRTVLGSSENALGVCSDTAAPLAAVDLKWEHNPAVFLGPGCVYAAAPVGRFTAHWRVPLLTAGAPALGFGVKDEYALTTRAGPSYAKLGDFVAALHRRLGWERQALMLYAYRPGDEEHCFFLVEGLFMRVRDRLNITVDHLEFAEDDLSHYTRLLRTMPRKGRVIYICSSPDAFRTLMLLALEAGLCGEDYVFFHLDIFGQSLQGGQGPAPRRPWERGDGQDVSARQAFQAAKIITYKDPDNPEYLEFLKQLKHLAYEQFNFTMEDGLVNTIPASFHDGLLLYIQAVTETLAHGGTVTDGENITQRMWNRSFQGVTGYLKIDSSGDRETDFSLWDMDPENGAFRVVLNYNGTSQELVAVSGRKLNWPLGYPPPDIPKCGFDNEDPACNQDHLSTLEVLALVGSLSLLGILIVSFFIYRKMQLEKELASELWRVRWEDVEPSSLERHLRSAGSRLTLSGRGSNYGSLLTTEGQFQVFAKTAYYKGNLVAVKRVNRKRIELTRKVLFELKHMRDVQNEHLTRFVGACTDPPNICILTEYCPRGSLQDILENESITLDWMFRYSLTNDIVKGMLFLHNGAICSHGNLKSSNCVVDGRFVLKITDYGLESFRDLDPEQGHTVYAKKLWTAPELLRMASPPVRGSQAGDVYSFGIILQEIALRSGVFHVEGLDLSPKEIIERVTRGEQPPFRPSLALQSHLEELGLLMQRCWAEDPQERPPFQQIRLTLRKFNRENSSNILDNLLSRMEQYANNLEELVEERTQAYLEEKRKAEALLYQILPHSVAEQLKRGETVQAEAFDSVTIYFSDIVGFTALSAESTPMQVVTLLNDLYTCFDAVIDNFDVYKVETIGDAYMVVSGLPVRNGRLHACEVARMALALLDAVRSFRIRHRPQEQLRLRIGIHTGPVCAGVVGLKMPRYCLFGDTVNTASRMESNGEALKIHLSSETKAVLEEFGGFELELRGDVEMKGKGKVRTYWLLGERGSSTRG
T1 sequence (P01160 124-151 partner limits assumed): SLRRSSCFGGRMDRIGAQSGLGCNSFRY
Description: Test compounds were evaluated for potentiation of cGMP in human GC-A overexpressing HEK293 cells (Cardiorenal Research Laboratory, Mayo Clinic). Test compounds at 10 mM DMSO stock concentration were dispensed into 384 well small volume white plates using Tecan D300e digital dispenser starting at 5 μM concentration and diluted 2-fold for 10-point concentration response. Wells were backfilled with DMSO such that the final concentration of DMSO in all wells was maintained at 0.3% DMSO. Atrial natriuretic peptide (ANP, Phoenix Pharmaceuticals) peptide ANP was prepared as working stock aliquots at 5 μM in phosphate-buffered solution (PBS) with 0.1% bovine serum albumin (BSA) and diluted to […] in buffer+Tween20 at 0.3% and added to plates to a final concentration of 20 pM (EC20). GC-A cells in suspension […] in OptiMem media (11058-021) supplemented with 2% fetal bovine serum were plated at 1×10^6 cells/mL and assay plates were spun at 1000 rpm for 30 sec and incubated at RT for 30 min. GC-A-mediated activation of cGMP production was measured using cGMP CisBio detection homogenous time-resolved florescence (HTRF) competition assay using labeled-cGMP in human GC-A-overexpressing HEK293 cells. 5 μL of d-2 acceptor was dispensed into each well followed by addition of 5 μL of Anti-cGMP Eu-Cryptate antibody donor and plates were spun at 1000 rpm for 30 sec and incubated in the dark at RT for 1 hr. HTRF florescence was read on the ClarioStar microplate reader (BMG). A 100% response was determined from wells in the absence of compound and presence of saturating concentration of ANP (10 nM), and 0% response was determined from wells containing an EC20 concentration of ANP determined for each new lot of ANP. EC20 values of ANP were maintained in the range of 15-30 pM across all assay plates tested.
Test compounds were tested in the absence of ANP to determine agonist activity.

[1] = cited from earlier work
hERG channel = hERG channel (Homo sapiens, UniProt Q12809); experiment: hERG binding / selectivity over hERG
[2] = Table 1, 100% = saturating ANP (10 nM), 0% = EC20 ANP, read-out: Emax (%)
[3] = Table 1, Formula (I-a), cGMP potentiation, ANP at EC20, read-out: EC50

Sequence of hERG channel (Q12809 whole entry): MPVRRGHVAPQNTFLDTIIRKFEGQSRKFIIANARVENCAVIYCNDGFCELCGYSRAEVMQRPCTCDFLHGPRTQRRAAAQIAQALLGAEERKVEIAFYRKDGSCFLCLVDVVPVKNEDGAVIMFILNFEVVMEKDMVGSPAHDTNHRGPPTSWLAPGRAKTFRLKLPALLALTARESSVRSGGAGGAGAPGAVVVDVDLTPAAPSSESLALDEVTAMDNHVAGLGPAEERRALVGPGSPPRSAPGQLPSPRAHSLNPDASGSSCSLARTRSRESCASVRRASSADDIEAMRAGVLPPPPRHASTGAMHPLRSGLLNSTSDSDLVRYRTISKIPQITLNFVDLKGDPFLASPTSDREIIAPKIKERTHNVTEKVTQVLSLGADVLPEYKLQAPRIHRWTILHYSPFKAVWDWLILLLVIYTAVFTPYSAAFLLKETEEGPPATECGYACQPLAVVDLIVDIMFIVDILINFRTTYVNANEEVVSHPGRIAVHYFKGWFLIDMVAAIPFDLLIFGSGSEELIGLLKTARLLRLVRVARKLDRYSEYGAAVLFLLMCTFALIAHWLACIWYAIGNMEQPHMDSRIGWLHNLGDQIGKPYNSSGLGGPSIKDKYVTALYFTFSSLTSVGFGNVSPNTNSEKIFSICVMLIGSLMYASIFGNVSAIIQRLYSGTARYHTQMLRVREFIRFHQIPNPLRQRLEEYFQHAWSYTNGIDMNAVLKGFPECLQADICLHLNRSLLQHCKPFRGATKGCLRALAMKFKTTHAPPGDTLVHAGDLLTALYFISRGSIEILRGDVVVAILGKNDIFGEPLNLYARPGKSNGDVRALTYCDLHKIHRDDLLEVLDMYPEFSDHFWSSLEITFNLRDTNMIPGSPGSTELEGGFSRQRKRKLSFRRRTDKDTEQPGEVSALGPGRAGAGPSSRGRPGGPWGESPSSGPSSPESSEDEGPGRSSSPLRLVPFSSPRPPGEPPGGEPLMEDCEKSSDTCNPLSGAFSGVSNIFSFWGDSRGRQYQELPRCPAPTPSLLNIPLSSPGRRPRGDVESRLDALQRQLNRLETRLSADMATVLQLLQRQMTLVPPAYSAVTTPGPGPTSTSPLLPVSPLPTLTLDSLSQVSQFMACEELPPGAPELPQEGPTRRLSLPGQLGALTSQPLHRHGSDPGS

SMILES: O=C(Nc1nc2c(F)cc(F)cc2s1)C1CNCCO1 (centres unmarked) [JUF-S11-003A]
IC50 (human GC-A): > 5 µM

SMILES: CN(C)CCN1CCCC(C(=O)Nc2nc3c(F)cc(F)cc3s2)C1 (centres unmarked) [MCUF 651, reference compound]
Emax values of internal control (human GC-A; FIG. 2, titrated on each 384-test plate): 80-100 % response | EC50 (human GC-A; FIG. 2, titrated on each 384-test plate, read-out: Acceptable EC50 values of internal control): 0.2 to 0.6 µM

SMILES: CN(C)CCN1CC(C(=O)Nc2nc3c(F)cc(F)cc3s2)CCC1=O (centres unmarked) [JUF-S11-001]
EC50 (human GC-A; Table 2, Formula (I-b), cGMP potentiation, ANP at EC20, read-out: EC50): > 5 µM

SMILES: CN(C)CCN1CCCC(C(=O)Nc2nc3c(F)cc(C(F)(F)F)cc3s2)C1 (centres unmarked) [JUF-S3-004]
IC50 (human GC-A): > 5 µM

SMILES: CN(C)CCN1CCCC(C(=O)Nc2nc3c(F)cc(F)cc3s2)C1 (centres unmarked) [MCUF-651]
Emax (human GC-A; control on each assay plate, read-out: Emax range of control compound): 75 to 85% | in vivo activity (in words) [1]: active in vivo | oral bioavailability (in words) ([1]; in vivo, po): orally bioavailable

SMILES: CCOc1cc(F)c2nc(NC(=O)C3CCCN(CCN(C)C)C3)sc2c1 (centres unmarked) [JUF-S3-010]
IC50 (human GC-A): > 5 µM

SMILES: O=C(Nc1nc2c(F)cc(F)cc2s1)C1CNCCN1C(=O)OCc1ccccc1 (centres unmarked) [JUF-S11-002A]
IC50 (human GC-A): > 5 µM

SMILES: COc1cc(F)c2nc(NC(=O)C3CCCN(CCN(C)C)C3)sc2c1 (centres unmarked) [JUF-S3-006]
Emax (human GC-A; Table 3, 100% = saturating ANP (10 nM), 0% = EC20 ANP, read-out: Emax (%)): 112% | IC50 (human GC-A): 6.7 µM

SMILES: O=C(Nc1nc2c(F)cc(F)cc2s1)C1CCCN(C2CNC2)C1 (centres unmarked) [JUF-S4-029A]
Emax (human GC-A; [2]): 84 to 89% | EC50 (human GC-A; [3]): 0.08 to 0.2 µM

SMILES: O=C(Nc1nc2c(F)cc(F)cc2s1)C1CCCN(CCN2CCCC2=O)C1 (centres unmarked) [JUF-S4-014]
GC-A activity (in words) (human GC-A): loss of activity | Emax (human GC-A; [2]): 105%

SMILES: Cc1cc(F)c2nc(NC(=O)C3CCCN(CCN(C)C)C3)sc2c1 (centres unmarked) [JUF-S3-005]
IC50 (human GC-A): 0.9 µM

SMILES: CN(C)CCN1CCOC(C(=O)Nc2nc3c(F)cc(F)cc3s2)C1 (centres unmarked) [JUF-S11-003]
IC50 (human GC-A): > 5 µM

Continued, in another order:

Emax (human GC-A; [2]): 89% | LLE (human GC-A; Table 1): 4.09- 4.39 | EC50 (human GC-A; [3]): 0.13 µM
SMILES: CN1CCC(N2CCCC(C(=O)Nc3nc4c(F)cc(F)cc4s3)C2)C1 (centres unmarked) [JUF-S4-015]

LLE (human GC-A; Table 1): 3.28- 3.72
SMILES: O=C(Nc1nc2c(F)cc(F)cc2s1)C1CCCN(c2ccncc2)C1 (centres unmarked) [JUF-S4-026]
GC-A activity (in words) (human GC-A): active; also recorded: more active than MCUF-651 | hERG binding (in words) (hERG channel): did not result in selectivity over hERG binding

Emax (human GC-A; [2]): 81 to 86% | EC50 (human GC-A; [3]): 2.1 to 4.9 µM
SMILES: Cn1cc(N2CCCC(C(=O)Nc3nc4c(F)cc(F)cc4s3)C2)cn1 (centres unmarked) [JUF-S4-023]

Emax (human GC-A; [2]): 104 to 135% | EC50 (human GC-A; [3]): 2.5 to 7.4 µM
SMILES: O=C(Nc1nc2c(F)cc(F)cc2s1)C1CCCN(c2cccnc2)C1 (centres unmarked) [JUF-S4-025]

GC-A activity (in words) (human GC-A): active
SMILES: CN(C)c1ccc(N2CCCC(C(=O)Nc3nc4c(F)cc(F)cc4s3)C2)cc1 (centres unmarked) [JUF-S4-009]

LLE (human GC-A; Table 1): 2.91
SMILES: O=C(Nc1nc2c(F)cc(F)cc2s1)C1CCCN(CCn2cccn2)C1 (centres unmarked) [JUF-S4-012]
GC-A activity (in words) (human GC-A): tolerated

Emax (human GC-A; [2]): 97%
SMILES: CN1CCCC(N2CCCC(C(=O)Nc3nc4c(F)cc(F)cc4s3)C2)C1 (centres unmarked) [JUF-S4-016]

GC-A activity (in words) (human GC-A): high potency in activation of GC-A | LLE (human GC-A; Table 1): 5.11 | potency in activation of GC-A relative to MCUF-651 (human GC-A; compared to MCUF-651): ~ 10 fold
SMILES: CN1CC(N2CCCC(C(=O)Nc3nc4c(F)cc(F)cc4s3)C2)C1 (centres unmarked) [JUF-S4-029]
hERG binding (in words) (hERG channel): did not eliminate hERG binding | toxicity from binding at hERG channel and other off-target toxicity (in words) (hERG channel): reduced toxicity | selectivity ratio (hERG channel; human, compared to MCUF-651, read-out: selectivity for GC-A vs hERG relative to MCUF-651): 50 to 100
